Experimental findings from PMC11453076, “Optimization, purification and characterization of laccase from a new endophytic Trichoderma harzianum AUMC14897 isolated from Opuntia ficus-indica and its applications in dye decolorization and wastewater treatment” (Microbial Cell Factories, 2024) are described below.

The assay has as its system T1, laccase from T. harzianum AUMC14897.
T1 construct: gene benzenediol:oxygen oxidoreductase; 72 kDa by GFC and SDS-PAGE; single zymogram band
The experiment in a line: ABTS oxidation at […] nm, Lineweaver-Burk plot. The format is biochemical, Trichoderma harzianum. Conditions: ABTS 0.02-0.1 mM; pH and temperature of the Km assay not restated (general assay: 50 mM sodium acetate pH 5.4, 37 °C).

For the compound `CCn1c(=NN=c2sc3cc(S(=O)(=O)O)ccc3n2CC)sc2cc(S(=O)(=O)O)ccc21` [ABTS, 2,2'-Azino-bis(3-ethylbenzothiazoline-6-sulfonic acid)], the Km stood at 100 µM.
